Data taken from publication PMC3069143 (Analytical chemistry, 2011).
Like-named read-outs stand apart in the source and are kept apart here.

What was measured:
Calf thymus ds-DNA [1] = assay: ECL genotoxicity array, multi-enzyme; conditions: for ECL turnover rate R (in words): arylamines, HLE or MLE, AcCoA + NADPH
rodent [2] = conditions: cited from earlier work; for LD50 (in words): rat for styrene and NPYR, mouse for arylamines
rodent [3] = conditions: cited from earlier work
human hepatic cell lines = conditions: ref Table S2 (SI); cited from earlier work
Calf thymus ds-DNA [4] = test system: Calf thymus ds-DNA
[5] = test system: Salmonella typhimurium TA1538; conditions: ref Table S2 (SI); cited from earlier work
[6] = test system: Salmonella typhimurium TA1535; conditions: ref Table S2 (SI); cited from earlier work
[7] = 1 min enzyme reaction, RLE or HLE

## Cc1ccc(N)cc1N [2,4-DAT, 2,4-diaminotoluene]
Calf thymus ds-DNA [1]; isomer pair 2,4-DAT vs 2,6-DAT
  R relative to 2,6-DAT: 3 fold
Rodent [2]
  LD50 (in words): small

## Cc1c(N)cccc1N [2,6-DAT, 2,6-diaminotoluene]
Rodent [3]; rat models
  induction of liver tumors: fails to induce liver tumors
Calf thymus ds-DNA [1]
  ECL turnover rate R (in words): small but significant

## CC(=O)Nc1ccc2c(c1)Cc1ccccc1-2 [2-AAF, N-acetyl-2-aminofluorene]
Human hepatic cell lines
  Comet assay OTM/conc.: large

## Nc1ccc2ccccc2c1 [2-NA, 2-naphthylamine]
Calf thymus ds-DNA [1]
  ECL turnover rate R (in words): did not generate large R

## Nc1ccc(-c2ccccc2)cc1 [4-ABP, 4-aminobiphenyl]
Calf thymus ds-DNA [1]
  ECL turnover rate R (in words): largest

## CN(CCCC(=O)c1cccnc1)N=O [NNK, 4-(methylnitrosamino)-1-(3-pyridyl)-1-butanone]
Human hepatic cell lines
  Comet assay OTM/conc.: small
Calf thymus ds-DNA [4]; 0.2 mM substrate, either RLE or HLE, NADPH regenerating system
  ECL produced relative to styrene: 2–3 times
Calf thymus ds-DNA [4]; [7]
  substrate concentration giving measurable ECL increase: 0.2 mM
[5]
  Ames mutagenicity, TA1538: not mutagenic
[6]
  Ames mutagenicity, TA1535: only slightly mutagenic

## O=NN1CCCC1 [NPYR, N-nitrosopyrrolidine]
Calf thymus ds-DNA [4]; [7]
  substrate concentration giving measurable ECL increase: 0.2 mM
[5]
  Ames mutagenicity, TA1538: not mutagenic
Rodent [2]
  LD50 (in words): small
[6]
  Ames mutagenicity, TA1535: only slightly mutagenic

## C=Cc1ccccc1 [styrene]
Human hepatic cell lines
  Comet assay OTM/conc.: small
Calf thymus ds-DNA [4]
  ECL turnover rate R (in words): small
  substrate concentration giving measurable ECL increase: 1 mM
Rodent [2]
  LD50 (in words): small

## Cc1ccccc1 [toluene]
Rodent [3]; liver TD50, rodent
  TD50: 5390 mg/kg body weight per day
Rodent [2]; rodent, single dose
  LD50: 2250 mg/kg body weight
